From US7867749B2, “Nematode phosphoethanolamine N-methyltransferase-like sequences” (priority 2006, dated 2011)
Read-outs that look alike come from different tables or passages of the source.

Columns and labels:
[1] = tested on: M. incognita; type: in vivo, Meloidogyne incongnita; details: J2 larvae soaked 48 hours
Procedure: (§1) The ethanolamine-like compounds mentioned above are also nematicidal against the plant parasites Meloidogyne incongnita and Meloidogyne javanica. Between 25 and 50 J2 stage larvae were soaked in the compounds for 48 hours at the indicated concentrations. After the treatment, the larvae were moved to an agar plate containing NGM. Worms that crawl away from the application spot are scored as alive while those that remain at the application spot are scored as dead. The three compounds that were nematicidal against C. elegans were also nematicidal against M. incognita and M. javanica

[2] = tested on: A. ellesmerensis; assay: Nematicidal activity against other nematodes; type: in vivo, Acrobiloides ellesmerensis
[3] = tested on: C. elegans; assay: Nematicidal activity of ethanolamine-like compounds against C. elegans; type: in vivo, Caenorhabditis elegans; details: P0 L4 larva; for F1 PHENOTYPE: 23° C.; for nematicidal activity against C. elegans: various concentrations
[4] = tested on: M. javanica; assay: Nematicidal activity against plant parasites, J2 larvae soak; type: in vivo, Meloidogyne javanica; details: 15 mM; J2 larvae soaked 48 hours
Procedure: as §1

[5] = tested on: Cephalobus sp.; assay: Nematicidal activity against other nematodes; type: in vivo
[6] = tested on: C. elegans; assay: Chemical rescue of the PEAMT2 RNAi-generated phenotype (feeding); type: in vivo, Caenorhabditis elegans; details: for rescue of PEAMT2 RNAi phenotype: chemical complementation, singly or in combination, concentration not given
[7] = target: T1, C. elegans PEAMT2 (DIV3202) (Caenorhabditis elegans, UniProt Q22993); assay: Km determination, radiochemical PEAMT assay; type: biochemical; details: 118 nM DIV3202H+
T1 sequence (Q22993 1-437): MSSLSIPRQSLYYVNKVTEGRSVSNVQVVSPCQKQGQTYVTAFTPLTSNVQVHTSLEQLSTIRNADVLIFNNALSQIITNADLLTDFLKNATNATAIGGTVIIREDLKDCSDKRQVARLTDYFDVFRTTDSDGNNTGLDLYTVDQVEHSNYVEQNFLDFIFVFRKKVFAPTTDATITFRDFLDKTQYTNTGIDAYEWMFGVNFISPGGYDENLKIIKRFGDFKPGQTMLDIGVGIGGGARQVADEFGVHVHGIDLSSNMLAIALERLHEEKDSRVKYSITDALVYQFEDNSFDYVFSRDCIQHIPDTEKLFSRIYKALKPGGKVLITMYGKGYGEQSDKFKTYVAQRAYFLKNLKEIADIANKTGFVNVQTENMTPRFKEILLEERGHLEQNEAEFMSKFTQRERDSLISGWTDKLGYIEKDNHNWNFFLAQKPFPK

[8] = tested on: C. elegans; assay: Chemical rescue of the PEAMT1 RNAi-generated phenotype (feeding); type: in vivo, Caenorhabditis elegans; details: for rescue of PEAMT1 mutants (RNAi-generated): 5 mM; for suppression of PEAMT1 larval lethal RNAi phenotype: chemical complementation, concentration not given
[9] = tested on: isolated intestinal epithelial cells; details: cited from earlier work
[10] = tested on: everted hamster jejunal and ileal segments; details: cited from earlier work
[11] = target: T2, C. elegans PEAMT1 (DIV3441) (Caenorhabditis elegans, UniProt Q23552); assay: Km determination, radiochemical PEAMT assay; type: biochemical
T2 construct: HIS tag (pET28a) (N); made in house; host or cells: bacterial culture, IPTG-induced pET28a
T2 sequence (Q23552 1-475): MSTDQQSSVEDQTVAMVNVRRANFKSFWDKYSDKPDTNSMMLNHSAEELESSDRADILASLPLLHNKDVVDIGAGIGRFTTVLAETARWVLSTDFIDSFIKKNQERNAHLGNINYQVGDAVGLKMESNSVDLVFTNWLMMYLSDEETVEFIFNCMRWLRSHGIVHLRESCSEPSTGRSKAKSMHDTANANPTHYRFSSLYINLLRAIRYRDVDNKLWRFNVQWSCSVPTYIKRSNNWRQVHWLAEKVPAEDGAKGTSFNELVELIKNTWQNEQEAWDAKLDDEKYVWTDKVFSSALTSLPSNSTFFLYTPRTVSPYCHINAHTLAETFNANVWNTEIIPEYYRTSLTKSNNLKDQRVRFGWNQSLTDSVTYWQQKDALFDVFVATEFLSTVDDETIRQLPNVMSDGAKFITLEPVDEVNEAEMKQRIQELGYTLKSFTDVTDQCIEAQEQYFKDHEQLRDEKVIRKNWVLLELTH

[12] = P0 L4, 5 or 10 mM in plate media

Structure (SMILES): CC(C)(C)NCCO [2-(tert-butylamino)ethanol]
- % DEAD WORMS ([1]; 5 mM): 50%
- F1 PHENOTYPE ([2]; 10 mM): L1/L2 arrest/lethality
- F1 PHENOTYPE ([3]; 10 mM): L1/L2 arrest/lethality
- nematicidal activity against C. elegans [3]: showed nematicidal activity
- % DEAD WORMS [4]: 50%
- F1 PHENOTYPE ([5]; 10 mM): L1/L2 arrest/lethality

Structure (SMILES): NCC(O)c1ccccc1 (stereo not drawn) [2-amino-1-phenylethanol]
- F1 PHENOTYPE ([3]; 25 mM): Wild-type development
- nematicidal activity against C. elegans [3]: no nematicidal effect

Structure (SMILES): N[C@@H](CO)Cc1ccccc1 [D-phenylalaninol]
- % DEAD WORMS ([1]; 25 mM): 100%
- F1 PHENOTYPE ([2]; 12.5 mM): L1/L2 arrest/lethality
- F1 PHENOTYPE ([3]; 10 mM): L1/L2 arrest/lethality
- nematicidal activity against C. elegans [3]: showed nematicidal activity
- F1 PHENOTYPE ([5]; 12.5 mM): L1/L2 arrest/lethality

Structure (SMILES): CN(C)CCO [DME, dimethylethanolamine]
- F1 phenotype, PEAMT2 dsRNA ([6]; P0 Dauer, 10 mM in plate media): Sterility
- F1 phenotype, PEAMT2 dsRNA ([6]; P0 L1, 10 mM in plate media): Sterility
- F1 phenotype, PEAMT2 dsRNA [6, 12]: L1/L2 arrest/lethality
- rescue of PEAMT2 RNAi phenotype [6]: not
- Km ([7]; 1 mM SAM, 0.05-10 mM DME, read-out: Km of DME for DIV3202H+ (PEAMT2H+; intact HIS tag)): 1.39 ± 0.26 µM
- rescue of PEAMT1 mutants (RNAi-generated) [8]: rescued
- rescue of sterility associated with PEAMT1 RNAi ([8]; Five mM): rescues the sterility
- F1 phenotype, PEAMT1 dsRNA ([8]; P0 Dauer, 10 mM in plate media): Fertile adults
- F1 phenotype, PEAMT1 dsRNA ([8]; P0 L1, 10 mM in plate media): Fertile adults
- F1 phenotype, PEAMT1 dsRNA [8, 12]: Fertile adults

Structure (SMILES): CNCCO [MME, monomethylethanolamine]
- F1 phenotype, PEAMT2 dsRNA [6, 12]: L1/L2 arrest/lethality
- rescue of PEAMT2 RNAi phenotype [6]: not
- Km ([7]; 1 mM SAM, 0.15-20 mM MME, read-out: Km of MME for DIV3202H+ (PEAMT2H+; intact HIS tag)): 2.1 ± 0.97 µM
- rescue of PEAMT1 mutants (RNAi-generated) [8]: rescued
- F1 phenotype, PEAMT1 dsRNA [8, 12]: Fertile adults
- suppression of PEAMT1 larval lethal RNAi phenotype [8]: suppressed

Structure (SMILES): OCCNc1ccccc1 [N-(2-hydroxyethyl)aniline]
- F1 PHENOTYPE ([3]; 10 mM): L1/L2 arrest/lethality
- nematicidal activity against C. elegans [3]: showed nematicidal activity

Structure (SMILES): CCCCCC[C@@H](O)C/C=C\CCCCCCCC(=O)O [Ricinoleic acid]
- cytotoxicity [9]: cytotoxic
- effect on water and electrolyte absorption [10]: inhibitory effect

Structure (SMILES): C[S+](CC[C@H](N)C(=O)O)C[C@H]1O[C@@H](n2cnc3c(N)ncnc32)[C@H](O)[C@@H]1O (stereo partly drawn) [S-adenosyl-L-methionine]
- Km ([7]; 10 mM DME, 0.004-3 mM SAM, read-out: Km of S-adenosyl-L-methionine for DIV3202H+ (PEAMT2H+; intact HIS tag)): 167 ± 34.6 µM
- Km ([7]; 30 mM MME, 0.004-3 mM SAM, read-out: Km of S-adenosyl-L-methionine for DIV3202H+ (PEAMT2H+; intact HIS tag)): 163 ± 42.4 µM
- Km ([11]; read-out: Km of S-adenosyl-L-methionine for DIV3441H+ (PEAMT1H+; intact HIS tag)): 62.5 ± 9.68 µM
- Km ([11]; read-out: Km of S-adenosyl-L-methionine for DIV3441H− (PEAMT1H−; cleaved HIS tag)): 146 ± 31.1 µM

Structure (SMILES): NCCO [ethanolamine (EA), ethanolamine]
- F1 phenotype, PEAMT2 dsRNA ([6]; P0 L4, 10 mM in plate media): L1/L2 arrest/lethality
- rescue of PEAMT2 RNAi phenotype [6]: not
- F1 phenotype, PEAMT1 dsRNA ([8]; P0 L4, 10 mM in plate media): L1/L2 arrest/lethality
- suppression of PEAMT1 larval lethal RNAi phenotype [8]: not

Structure (SMILES): CCCCCC[C@@H](O)C/C=C\CCCCCCCC(=O)OC [methyl ester of ricinoleic acid]
- effect on water and electrolyte absorption [10]: ineffective
